Data from article PMC10818312, “Ocular and Plasma Pharmacokinetics of Enavogliflozin Ophthalmic Solution in Preclinical Species” (Pharmaceuticals, 2024).

Tests used:
[1] = Ocular distribution and blood exposure of radioactivity by autoradiography after single ocular [14C] enavogliflozin (terminal sampling); settings: single ocular 600 μg/eye, rabbits
Procedure: (§3) We used 9-month-old male rabbits (Envigo, Denver, PA, USA) weighing 3.1–3.7 kg in the PK studies involving a single topical ocular administration of [^14C] enavogliflozin.
(§4) The appropriate quantity of radiolabeled and non-radiolabeled test formulation (if required) was combined with the vehicle to meet the dose level (~77 μCi/eye). […] A single volumetric dose of 30 μL was administered to each eye (600 μg/eye, 1200 μg/head).
(§5) Two animals were euthanized by Euthasol® administration into the marginal ear vein at each predetermined time point (0.5, 1, 2, 4, 8, 24, and 48 h) post-instillation. Subsequently, their heads were frozen in a hexane/dry-ice bath and embedded in a 5% carboxymethylcellulose matrix. The embedded heads were sectioned at 30 μm thickness with less than 20% variation.
(§6) The primary PK parameters for concentrations of enavogliflozin were explored using a noncompartmental method of Phoenix WinNonlin 8.3 (Certara, L.P., Princeton, NJ, USA). The Cmax and Tmax were directly accepted from observed data. The AUC0–t was calculated using the linear trapezoidal method based on the mean radioactivity concentration of both eyes for ocular PKs in rabbits and the linear-up/log-down trapezoidal method for plasma PKs in rats, beagle dogs, and rabbits.

[2] = male, New Zealand White, rabbit, in vivo
Procedure: as §3, §4, §5, §6

[3] = Plasma PK after single ocular administration in beagle dogs; format: in vivo; settings: male, Ridglan beagle, topical or ocular, 100 ug, beagle dog plasma, single ocular 100 μg
Procedure: (§1) We used 7-week-old male Brown Norway rats (Central Lab. Animal Inc., Seoul, Republic of Korea) weighing 140–180 g. The rats were acclimated for a minimum of 7 days. For the evaluation of plasma PKs after ocular administration, a single dose of 5 μL of DWRX2008 0.5% (25 μg of enavogliflozin) was topically applied on the left eye. One-year-old male Ridglan beagle dogs (JOHN Bio Co., Nantong, China) weightng 8–10 kg were chosen. The beagle dogs experienced a withdrawal period of over one month. For the evaluation of plasma PKs after ocular administration, a single dose of 20 μL of DWRX2008 0.5% (100 μg of enavogliflozin) was ocularly administered on the left eyes. In rats and beagle dogs, DWRX2008 was administered to the left eye for evaluation of safety and systemic absorption. Male New Zealand White rabbits (Samtako Biokorea, Osan, Republic of Korea) weighing 2.0–2.5 kg were used in PK studies after eye drop instillations. The rabbits were acclimated for 7 days. […]
(§2) A total of three rats were sampled 10 times at 0 (pre-dose), 0.08, 0.25, 0.5, 1, 2, 4, 8, 12 and 24 h post-dose. […] After centrifugation at 14,000 rpm for 5 min, 3 μL of sample was analyzed by LC-MS [24]. […] Finally, 3 μL of sample was analyzed by LC-MS [24]. […] Finally, 3 μL of sample was analyzed by LC-MS [24]. […]

[4] = Plasma PK after single ocular administration in rabbits; format: in vivo; settings: male, New Zealand White, topical or ocular, 400 ug, rabbit plasma, single ocular 400 μg (both eye)
Procedure: as §1, §2

[5] = tested on: hERG; parameters: method as in earlier work; settings: ref Daewoong Therapeutics, DWRX2008-IB-01 Investigator’s brochure, data on file; cited from earlier work
[6] = no reference given; cited from earlier work
[7] = Plasma PK after single ocular administration in rats; format: in vivo; settings: male, Brown Norway, topical or ocular, 25 ug, rat plasma, single ocular 25 μg
Procedure: as §1, §2

[8] = Retina/plasma drug concentration ratio in rats; format: in vivo; settings: mean (range)
[9] = tested on: hSGLT2; settings: no reference given; read-out: IC50 against hSGLT2; cited from earlier work
[10] = Plasma and retinal concentration after single oral administration in rabbits; format: in vivo, male New Zealand White rabbits
[11] = Melanin binding capability; format: in vitro ADME
[12] = left eye, median [min, max], n = 3

Row | time until which retinal concentration remained above the IC50 of SGLT2 [2] [h] | Tmax [3, 12] [h] | half-life ([3]; mean ± SD (% CV)) [h] | half-life ([4]; mean ± SD (% CV)) [h] | Tmax ([4]; median [min, max], n = 6) [h] | Tmax [7, 12] [h] | half-life ([7]; mean ± SD (% CV)) [h] | mean retina/plasma (R/P) drug concentration ratio ([8]; 1 h after administration) | mean retina/plasma (R/P) drug concentration ratio ([8]; 3 h after administration) | mean retina/plasma (R/P) drug concentration ratio ([8]; 6 h after administration) | Tmax ([10]; male, New Zealand White, 400 ug, rabbit plasma, single oral 400 μg, median [min, max], n = 6) [h] | retinal enavogliflozin concentration ([10]; rabbits, oral administration, same dose (400 μg)) | melanin binding capability [11] | Compound | AUC0–t in whole blood as % of corresponding value in the plasma ([1]; radioactivity) [%] | Cmax in whole blood as % of corresponding value in the plasma ([1]; radioactivity) [%] | Radioactivity in the optic nerve [1] | IC50 [5] [µM] | partition coefficient [Log P] [6] | IC50 [9] [µM]
1 | – | – | – | – | – | – | – | – | – | – | – | – | – | [^14C] enavogliflozin | 64.0 | 73.4 | barely detectable | – | – | –
2 | 24 | 1 | 10.6 | 3.6 | 0.5 | 4 | 5.4 | 3.3 (range: 0.6–6.6) | 1.3 (range: 0.2–2.2) | 2.6 (range: 1.4–3.3) | 0.8 | below the lower limit of quantification | approximately 33% | OC[C@H]1O[C@@H](c2cc(Cc3ccc(C4CC4)cc3)c(Cl)c3c2CCO3)[C@H](O)[C@@H](O)[C@@H]1O [enavogliflozin] | – | – | – | 44.9 | 2.13 | 0.00043
